Results from PubChem BioAssay AID1259407 (Chemical Carcinogenesis Research Information System (CCRIS), 2018).
Calls of active or inactive are those of the source. No rule for the calls is given here.

Tested on: CCRIS mutagenicity, Ames/micronucleus/aberration tests
Assay: CCRIS mutagenicity studies
[1] = Test System: AMES SALMONELLA TYPHIMURIUM, Strain/Indicator: TA98, Metabolic Activation: NONE, Method: STANDARD PLATE
[2] = Test System: AMES SALMONELLA TYPHIMURIUM, Strain/Indicator: TA98, Metabolic Activation: RAT, LIVER, S-9, AROCLOR 1254, Method: STANDARD PLATE
[3] = Test System: AMES SALMONELLA TYPHIMURIUM, Strain/Indicator: TA100, Metabolic Activation: NONE, Method: STANDARD PLATE
[4] = Test System: AMES SALMONELLA TYPHIMURIUM, Strain/Indicator: TA1535, Metabolic Activation: NONE, Method: STANDARD PLATE

O=[N+]([O-])O[C@@H]1CO[C@H]2[C@@H]1OC[C@@H]2O
mutagenic call [1]: inactive; negative
mutagenic call [2]: inactive; negative
mutagenic call [3]: inactive; negative
mutagenic call (Test System: AMES SALMONELLA TYPHIMURIUM, Strain/Indicator: TA100, Metabolic Activation: RAT, LIVER, S-9, AROCLOR 1254, Method: STANDARD PLATE): inactive; negative
mutagenic call [4]: inactive; negative
mutagenic call (Test System: AMES SALMONELLA TYPHIMURIUM, Strain/Indicator: TA1535, Metabolic Activation: RAT, LIVER, S-9, AROCLOR 1254, Method: STANDARD PLATE): inactive; negative
mutagenic call (Test System: AMES SALMONELLA TYPHIMURIUM, Strain/Indicator: TA1537, Metabolic Activation: NONE, Method: STANDARD PLATE): inactive; negative
mutagenic call (Test System: AMES SALMONELLA TYPHIMURIUM, Strain/Indicator: TA1537, Metabolic Activation: RAT, LIVER, S-9, AROCLOR 1254, Method: STANDARD PLATE): inactive; negative

CC(C)NCC(=O)NC(=O)C=[N+]=[N-]
mutagenic call (Test System: UDS RODENT CELLS, Strain/Indicator: THY INCORP (NON-S-PHASE), Metabolic Activation: NONE, Method: AUTORADIOGRAPHY): active; positive

CC1(C)CC2=C(C=O)[C@]3(C=O)C[C@]3(C)[C@@H](O)[C@@H]2C1
mutagenic call [1]: inactive; negative
mutagenic call [3]: inactive; negative
mutagenic call (Test System: AMES SALMONELLA TYPHIMURIUM, Strain/Indicator: TA2637, Metabolic Activation: NONE, Method: STANDARD PLATE): inactive; negative

NC(=O)CNC(=O)N(CCCl)N=O
mutagenic call [4]: active; positive

CO[C@@]12[C@H](CO)C3=C(C(=O)C(C)=C(N)C3=O)N1C[C@@H]1N[C@@H]12
mutagenic call (Test System: CHINESE HAMSTER V-79, Strain/Indicator: V-79/6-THIOGUANINE, Metabolic Activation: NONE, Method: FLASK ASSAY): active; positive

CC(=O)OC1Cc2cc3cccc4ccc5ccc1c2c5c43 (stereo not given)
mutagenic call [1]: active; positive
mutagenic call [3]: active; positive

Cc1nc2ccc3c(nc(N)n3C)c2nc1C
mutagenic call [2]: active; positive

COc1ccc2c(c1)C(=O)c1nccc3cc4c(c-2c13)OCO4
mutagenic call (Test System: AMES SALMONELLA TYPHIMURIUM, Strain/Indicator: TA98, Metabolic Activation: RAT, LIVER, S-9, PHENOBARBITAL AND BETA-NAPHTHOFLAVONE, Method: PREINCUBATION): active; positive
mutagenic call (Test System: AMES SALMONELLA TYPHIMURIUM, Strain/Indicator: TA100, Metabolic Activation: RAT, LIVER, S-9, PHENOBARBITAL AND BETA-NAPHTHOFLAVONE, Method: PREINCUBATION): active; positive

Nc1ccc(I)cc1
mutagenic call (End Point: IN VITRO MICRONUCLEUS, Test System: CHL/IU CELLS, Metabolic Activation: RAT, LIVER, S-9, PHENOBARBITAL AND 5,6-BENZOFLAVONE): inactive; negative
